Laboratory results from US8741964B2, “Uses of nonenal” (Industry-Academic Cooperation Foundation, Yonsei University, priority 2011, dated 2014).

What was measured:
TNF-α = assay: RT-PCR analysis of visceral fat tissues: TNF-α gene expression; format: in vivo, mice; settings: feeding nonenal in HFD vs HFD
Source text: (§1) The obesity-inducing control diet used in the test was high-fat diet (HFD: 40% fat calorie, 17 g lard+3% corn oil/100 g diet). Diets supplemented with nonenal (nonenal-supplemented high fat diet, NED) had the same composition as HFD, except that nonenal was included at 0.2% (see Table 1). The normal diet group (Chow) was fed with commercially available rodent chow. Nonenal was purchased from Sigma-Aldrich.
(§2) 5-week-old male C57BL/6J mice (Orient, Korea) were accustomed to the laboratory environment for 1 week while feeding solid feed. Then, they were randomly divided into normal diet, high-fat diet and test groups and bred for a total of 10 weeks. The diet was given between 10 and 11 a.m. every day together with water. Food intake was measured every day and body weight was measured once a week. In order to avoid transient body weight increase after feed intake, body weight was measured 2 hours after removing the feed. […]
(§3) After adding 1 mL of Trizol agent per 0.1 g of visceral fat tissues, the mixture was homogenized and centrifuged at 12,000×g for 10 min at 4° C. […] The RNA sample concentration was measured at a wavelength of 260 nm and 280 nm using a UV/VIS spectrophotometer (Beckman coulter, DU730) and the integrity of RNA sample was verified by agarose gel electrophoresis. […]

PPARγ2 = assay: RT-PCR analysis of visceral fat tissues: PPARγ2 gene expression; format: in vivo, mice; settings: nonenal supplemented to the HFD vs HFD; to levels similar for the Chow group
Source text: as §1, §2, §3

C57BL/6J mice [1] = assay: Body weight, food intake and visceral fat-pad weights of mice fed test diets for 10 weeks; format: in vivo
Source text: as §1
(§4) 5-week-old male C57BL/6J mice (Orient, Korea) were accustomed to the laboratory environment for 1 week while feeding solid feed. Then, they were randomly divided into normal diet, high-fat diet and test groups and bred for a total of 10 weeks. The diet was given between 10 and 11 a.m. every day together with water. Food intake was measured every day and body weight was measured once a week. In order to avoid transient body weight increase after feed intake, body weight was measured 2 hours after removing the feed. After fasting the test animal for at least 12 hours and anesthetizing with diethyl ether, blood, liver and visceral fat (epididymal fat, perirenal fat, mesenteric fat and retroperitoneal fat) were taken and weighed after washing with 0.1 M PBS (pH 7.4). Blood taken from the abdominal aorta was centrifuged at 1000×g for 15 minutes for the separation of plasma.

rats = settings: cited from earlier work
microbial growth = settings: cited from earlier work
C57BL/6J mice [2] = assay: Biochemical analysis of blood (plasma lipids, glucose, ALT, AST) of mice fed test diets; format: in vivo; settings: 10 weeks
Source text: as §1, §4
After 10 weeks of breeding, total cholesterol, triglyceride and glucose levels in the plasma and lipid levels in the liver tissue were measured as follows. Total cholesterol, triglyceride, free fatty acid and glucose levels in the plasma were measured twice for each using a commercially available kit (Bio Clinical System). The activity of ALT (alanine aminotransferase) and AST (aspartate aminotransferase) used as liver function indicator were measured twice for each using a commercially available kit (Bio Clinical System, Korea).

C57BL/6J mice [3] = assay: Analysis of lipid level in liver tissues of mice fed test diets; format: in vivo; settings: 0.2% nonenal in high-fat diet, 10 weeks, as compared to HFD
Source text: as §1, §4
Lipids were extracted from the liver tissue according to Folch et al.'s method Folch J et al., J Biol. Chem. 226: 497-509 (1957)). After adding 1 mL of distilled water to 0.25 g of liver tissue, the liver tissue was homogenized using a Polytron homogenizer (IKA-Werke GmbH & Co., Ultra-Turrax, Staufen, Germany). After adding 5 mL of chloroform:methanol solution (2:1, v/v) to the homogenate and mixing well, the mixture was centrifuged at 1000×g for 10 minutes. After adding 2 mL of chloroform:methanol solution (2:1, v/v) again to the supernatant, the same procedure was repeated to completely separate the lipid components of the liver. […] The dried lipids were dissolved in 1 mL of methanol and then analyzed. […]

IL-6 = assay: RT-PCR analysis of visceral fat tissues: IL-6 gene expression; format: in vivo, mice; settings: feeding nonenal in HFD vs HFD
Source text: as §1, §2, §3

aP2 = assay: RT-PCR analysis of visceral fat tissues: aP2 gene expression; format: in vivo, mice; settings: nonenal supplemented to the HFD vs HFD; to levels similar for the Chow group
Source text: as §1, §2, §3

C/EBPα = assay: RT-PCR analysis of visceral fat tissues: C/EBPα gene expression; format: in vivo, mice; settings: nonenal supplemented to the HFD vs HFD; to levels similar for the Chow group
Source text: as §1, §2, §3

[4] = 0.2% nonenal in high-fat diet, as compared to HFD
[5] = 0.2% nonenal in high-fat diet, as compared to HFD group

For `CCCCCC/C=C/C=O` [nonenal, trans-2-nonenal], the “HFD-induced elevation in the expression of TNF-α in visceral fat tissues” value (TNF-α) was “significantly reversed”, the “expression of PPARγ2 gene (mRNA) in visceral fat tissues” value (PPARγ2) was “significantly decreased” and the “decrease of body weight gain” value (C57BL/6J mice [1]; 0.2% nonenal in high-fat diet (NED), as compared to HFD) was 49%. The “weight of epididymal fat-pad” value (C57BL/6J mice [1]; [4]) was “significantly reduced”, the “weight of mesenteric fat-pad” value (C57BL/6J mice [1]; [4]) was “significantly reduced” and the “weight of perirenal fat-pad” value (C57BL/6J mice [1]; [4]) was “significantly reduced”. The “weight of retroperitoneal fat-pad” value (C57BL/6J mice [1]; [4]) was “significantly reduced”, the “reduction of total visceral fat weight” value (C57BL/6J mice [1]; NED group vs HFD group) was 59% and the LD50 (rats) was “more than 5,000 mg/kg”. The “microbial growth inhibitory effects” value (microbial growth) was “microbial growth inhibitory effects”, the “reduction of fasting blood sugar level” value (C57BL/6J mice [2]; [4]) was 31% and the “lowering of plasma LDL+VLDL cholesterol level” value (C57BL/6J mice [2]; [5]) was 20%. For the same compound, the “lowering of plasma free fatty acid level” value (C57BL/6J mice [2]; [5]) was 41%, the “lowering of plasma total cholesterol level” value (C57BL/6J mice [2]; [5]) was 19% and the “lowering of plasma triglyceride level” value (C57BL/6J mice [2]; [5]) was 37%. The “decrease of plasma activity of ALT” value (C57BL/6J mice [2]; NED group vs HFD group) was 28%, the “decrease of plasma activity of AST” value (C57BL/6J mice [2]; NED group vs HFD group) was 31% and the “decrease of cholesterol level in liver tissue” value (C57BL/6J mice [3]) was 75%. For the same compound, the “decrease of free fatty acid level in liver tissue” value (C57BL/6J mice [3]) was 74%, the “decrease of triglyceride level in liver tissue” value (C57BL/6J mice [3]) was 78% and the “HFD-induced elevation in the expression of IL-6 in visceral fat tissues” value (IL-6) was “significantly reversed”. For the same compound, the “expression of aP2 gene (mRNA) in visceral fat tissues” value (aP2) was “significantly decreased” and the “expression of C/EBPα gene (mRNA) in visceral fat tissues” value (C/EBPα) was “significantly decreased”.
